Reference: article PMC9266460, “KSK-74: Dual Histamine H3 and Sigma-2 Receptor Ligand with Anti-Obesity Potential” (International Journal of Molecular Sciences, 2022)

What was measured:
adipose tissue = experiment: Histological examination of adipose tissue (Masson's trichrome); assay type: in vivo, female Wistar rats; conditions: palatable diet; for inflammatory infiltrates in adipose tissue (histological description) / number of adipocytes per 0.1 mm^2 of cross-sectional area / inflammatory index of the adipose tissue: KSK 10 mg/kg, phentermine 7 mg/kg; for number of adipocytes per 0.1 mm^2 of cross-sectional area: means ± SD, n = 6; for inflammatory index of the adipose tissue: standard diet + vehicle 0.5 ± 0.34
Protocol: Adipose tissue samples were prepared for histology using Masson’s trichrome stain (Merck) by fixation in 4% formaldehyde, dehydration in graded alcohol, and embedded in paraffin. The tissue samples were then sectioned using a microtome of 5 μm thickness. Six random fields from each section were analyzed in a blinded manner with an Olympus BX41 light microscope (Olympus, Tokyo, Japan) at magnifications of ×20, ×40 and ×100, and digital images were captured with an Olympus UC90 color camera. The quantitation of the number of adipocytes was performed in eight fields/slide with ×100 objective using an image analysis system: CellSensDimension (Olympus, Tokyo, Japan). The numerical density of the adipocytes was obtained by counting the total number of adipocytes per high-power field ([…]), and then this number was converted to 0.1 mm^2. According to stereometric rules, adipocytes tangent to the left and top edges of the image field were not counted. A semi-quantitative scale was used to assess the inflammatory response in adipose tissue. The following were evaluated on a subjective scale: inflammatory cell infiltration between adipocytes (0—normal, 1—few cells, 2—local clusters, and 3—extensive infiltrates), perivascular infiltration of immune cells (0—normal, 1—few cells, and 2—ring of inflammatory cells), widening of the septum (0—normal and 1—widening), and capillary congestion (0—normal and 1—congestion). A sum calculated from independently assessed values was calculated for each animal as an index of inflammation.

sigma-2 receptor = target: sigma-2 receptor; parameters: method as in PMID 34908391; conditions: Figure 1; read-out: σ2R Ki; cited from earlier work
[1] = tested on: rats fed a palatable diet; experiment: Model of excessive eating: body weight, calorie intake, fat pads; assay type: in vivo, female Wistar rats; conditions: for body weight during administration (time course): 10 mg/kg i.p. daily, persisted until the 28th day; for amount of peritoneal fat pads vs palatable diet + vehicle: KSK 10 mg/kg, end of experiment; for amount of peritoneal fat pads vs palatable diet + vehicle / body weight gain vs palatable diet + vehicle: phentermine 7 mg/kg; for calorie intake vs control group fed palatable feed: i.p. 28 days, KSK 10 mg/kg b.w., phentermine 7 mg/kg b.w.; for body weight vs palatable diet + vehicle / body weight gain vs palatable diet + vehicle: i.p. daily 4 weeks; for body weight vs palatable diet + vehicle: 1 mg/kg; for body weight gain vs palatable diet + vehicle: KSK-60/KSK-74 10 mg/kg b.w.
Protocol: Experiments were performed on female Wistar rats with an initial body weight of 140–160 g. The animals were housed in plastic cages (2 rats per cage) at a constant room temperature of 22 ± 2 °C, with a 12:12 h light/dark cycle. Water and food were available ad libitum. The randomly established experimental groups consisted of 6 rats for pharmacological studies and 3 rats for pharmacokinetic studies. All experiments were conducted in accordance with the Guide to the Care and Use of Experimental Animals, and were approved by the Jagiellonian University in Krakow Local Ethics Committee for Experiments on Animals (Permission No: 185/2017, 220/2019 and 223A/2019).
Female rats were randomly divided into several groups (n = 6) and studied for 4 weeks. The groups were as follows: standard diet + vehicle, palatable diet + vehicle, palatable diet + KSK-60 (1 mg/kg), palatable diet + KSK-60 (10 mg/kg), palatable diet + KSK-74 (1 mg/kg), palatable diet + KSK-74 (10 mg/kg), palatable diet + phentermine (7 mg/kg).
The studies for the 1 mg/kg b.w. and 10 mg/kg b.w. doses were performed at different times, so the parameters studied were compared to the respective control groups.
Rats fed a palatable diet had access to a diet consisting of milk chocolate with nuts, cheese, salted peanuts, and 7% condensed milk, and simultaneously to a standard feed (Labofeed B, Morawski Manufacturer Feed, Poland) for 4 weeks. The water was available ad libitum. Animals had access to palatable products, but also to the standard feed. Most importantly, feeding was not in any way forced, as in other models where animals were fed only a high-fat diet, or temporarily deprived of food (binge eating models). In the case of our model, rats decided themselves when, what, and how much to eat. The weight was evaluated daily. Calorie intake was evaluated three times a week. A palatable diet contained 100 g of peanuts—612 kcal; 100 mL of condensed milk—131 kcal; 100 g of milk chocolate—529 kcal; and 100 g of cheese—325 kcal. The standard diet contained 100 g of feed—280 kcal. Standard diet (fats 8%, carbohydrates 67%, proteins 25%) contained 100 g feed—280 kcal.
The palatable control group (palatable diet + vehicle) received vehicle (1% Tween 80 i.p., daily, for 4 weeks), while palatable test groups were injected i.p. with KSK-60 (1 mg or 10 mg/kg i.p, daily, for 4 weeks), KSK-74 (1 mg/kg or 10 mg/kg i.p, daily, for 4 weeks), or phentermine (7 mg/kg i.p., daily, for 4 weeks), respectively.
On the 31st day, 20 min after i.p. administration of heparin (5000 units/rat) and thiopental (70 mg/kg b.w.), animals were sacrificed, and plasma as well as peritoneal fat pads were collected (food was stopped for 6 h prior to organ, tissue, and plasma collection) for further study.

H3 histamine receptor = H3 histamine receptor (Homo sapiens, UniProt Q9Y5N1); experiment: Intrinsic activity at H3R, LANCE Ultra cAMP assay; assay type: cell-based
Chain of H3 histamine receptor (Q9Y5N1 whole entry): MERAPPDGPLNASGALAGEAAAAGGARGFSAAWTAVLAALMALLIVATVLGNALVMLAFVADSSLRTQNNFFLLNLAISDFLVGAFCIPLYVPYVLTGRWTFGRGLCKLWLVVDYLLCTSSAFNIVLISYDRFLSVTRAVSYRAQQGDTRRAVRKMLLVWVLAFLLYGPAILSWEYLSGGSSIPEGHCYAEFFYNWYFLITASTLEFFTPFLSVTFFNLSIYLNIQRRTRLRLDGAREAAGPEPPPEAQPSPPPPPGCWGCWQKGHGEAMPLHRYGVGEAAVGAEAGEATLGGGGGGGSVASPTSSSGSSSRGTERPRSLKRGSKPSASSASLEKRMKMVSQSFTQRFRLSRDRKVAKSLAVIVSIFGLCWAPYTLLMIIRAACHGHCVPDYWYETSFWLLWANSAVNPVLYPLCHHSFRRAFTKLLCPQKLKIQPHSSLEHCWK
Protocol: Intrinsic activity studies were performed using two methods, Aequoscreen and LANCE Ultra cAMP assays, according to the manufacturer of the ready-to-use cells with stable expressions of the H3 histamine receptor (Perkin Elmer).
The assay is based on the competition between the europium (Eu) chelate-labeled cAMP tracer and sample cAMP for binding sites on cAMP-specific monoclonal antibodies labeled with the ULight dye.

[2] = tested on: rats fed a palatable diet; experiment: Intraperitoneal glucose tolerance test; assay type: in vivo, female Wistar rats; conditions: 10 mg/kg; for blood glucose levels after glucose load vs control animals fed palatable feed: glucose 1 g/kg i.p., 29th day
Protocol: The test was conducted on the 29th day of the experiment. After twenty-eight administrations of the test compounds, the food was stopped for 20 h and then glucose tolerance was tested. Glucose (1 g/kg b.w.) was administered i.p.. Blood samples were obtained from the tail vein at the time points 0 (before glucose administration), 30, 60, and 120 min after administration. Glucose levels were measured with a glucometer (ContourTS, Bayer, Leverkusen, Germany, test stripes: ContourTS, Ascensia Diabetes care Poland Sp. z o. o., Poland, REF:84239666). The area under the curve (AUC) was calculated using the trapezoidal rule.

Q: What does the source list for CCC(=O)c1ccc(OCCCCCCN2CCN(c3ccncc3)CC2)cc1 [KSK-60]?
A: inflammatory infiltrates in adipose tissue (histological description) (adipose tissue): Many inflammatory cells infiltrated the area of adipocytes and the perivascular area; number of adipocytes per 0.1 mm^2 of cross-sectional area (adipose tissue): 18.02 ± 1.38 per 0.1 mm^2; inflammatory index of the adipose tissue (adipose tissue): 4.5 ± 0.80; number of rats, Capillary Congestion grade 0-Normal (adipose tissue; n = 6 per group): 2; number of rats, Capillary Congestion grade 1-Congestion (adipose tissue; n = 6 per group): 4; number of rats, Inflammatory Cell Infiltration grade 1-Few Cells (adipose tissue; n = 6 per group): 2; number of rats, Inflammatory Cell Infiltration grade 2-Local Clusters (adipose tissue; n = 6 per group): 4; number of rats, Perivascular Infiltration grade 1-Few Cells (adipose tissue; n = 6 per group): 2; number of rats, Perivascular Infiltration grade 2-Ring of Cells (adipose tissue; n = 6 per group): 4; number of rats, Widening of the Septum grade 0-Normal (adipose tissue; n = 6 per group): 1; number of rats, Widening of the Septum grade 1-Widening (adipose tissue; n = 6 per group): 5; Ki (sigma-2 receptor): 110 nM; body weight during administration (time course) [1]: significant inhibition of body weight gain around the 10th day; amount of peritoneal fat pads vs palatable diet + vehicle [1]: fewer peritoneal fat pads; calorie intake vs control group fed palatable feed [1]: did not significantly influence the amount of calories consumed; body weight vs palatable diet + vehicle [1]: No differences in body weight; body weight gain vs palatable diet + vehicle [1]: gained significantly less weight; IC50 (H3 histamine receptor): 0.78 ± 0.1 nM; area under the IPGTT curve (AUC) vs rats fed high-calorie feed [2]: decreased significantly; blood glucose levels after glucose load vs control animals fed palatable feed [2]: significantly lower at 30 or/and 60 min after glucose load

Q: With CCC(=O)c1ccc(OCCCCCCCCN2CCN(c3ccncc3)CC2)cc1 [KSK-74] as the molecule, how does the “inflammatory infiltrates in adipose tissue (histological description)” value (adipose tissue) read?
A: slightly less inflammatory infiltrates

Q: What about the “number of adipocytes per 0.1 mm^2 of cross-sectional area” value (adipose tissue) of the same molecule?
A: 34.78 ± 4.78 per 0.1 mm^2

Q: And the “inflammatory index of the adipose tissue” value (adipose tissue)?
A: comparable to the standard control

Q: What about the “number of rats, Capillary Congestion grade 0-Normal” value (adipose tissue; n = 6 per group) of the same molecule?
A: 5

Q: And the “number of rats, Capillary Congestion grade 1-Congestion” value (adipose tissue; n = 6 per group)?
A: 1

Q: What about the “number of rats, Inflammatory Cell Infiltration grade 0-Normal” value (adipose tissue; n = 6 per group) of the same molecule?
A: 1

Q: And the “number of rats, Inflammatory Cell Infiltration grade 1-Few Cells” value (adipose tissue; n = 6 per group)?
A: 3

Q: What about the “number of rats, Inflammatory Cell Infiltration grade 2-Local Clusters” value (adipose tissue; n = 6 per group) of the same molecule?
A: 2

Q: And the “number of rats, Perivascular Infiltration grade 0-Normal” value (adipose tissue; n = 6 per group)?
A: 2

Q: What about the “number of rats, Perivascular Infiltration grade 1-Few Cells” value (adipose tissue; n = 6 per group) of the same molecule?
A: 1

Q: What about the “number of rats, Perivascular Infiltration grade 2-Ring of Cells” value (adipose tissue; n = 6 per group) of the same molecule?
A: 3

Q: What about the “number of rats, Widening of the Septum grade 0-Normal” value (adipose tissue; n = 6 per group) of the same molecule?
A: 3

Q: And the “number of rats, Widening of the Septum grade 1-Widening” value (adipose tissue; n = 6 per group)?
A: 3

Q: And the Ki (sigma-2 receptor)?
A: 65.9 nM

Q: What about the “milk intake vs control group fed palatable feed” value ([1]; 10 mg/kg b.w.) of the same molecule?
A: consumed significantly less milk in the first and second weeks

Q: What about the “peanuts intake vs control group fed palatable feed” value ([1]; 10 mg/kg b.w.) of the same molecule?
A: significantly less peanuts in the fourth week

Q: And the “body weight during administration (time course)” value [1]?
A: significant inhibition of body weight gain around the 10th day

Q: And the “amount of peritoneal fat pads vs palatable diet + vehicle” value [1]?
A: fewer fat pads

Q: What about the “calorie intake vs control group fed palatable feed” value [1] of the same molecule?
A: did not significantly influence the amount of calories consumed

Q: What about the “body weight vs palatable diet + vehicle” value [1] of the same molecule?
A: No differences in body weight

Q: What about the “body weight gain vs palatable diet + vehicle” value [1] of the same molecule?
A: gained significantly less weight

Q: What about the IC50 (H3 histamine receptor) of the same molecule?
A: 23.2 ± 3.6 nM

Q: And the “area under the IPGTT curve (AUC) vs rats fed high-calorie feed” value [2]?
A: decreased significantly

Q: What about the “blood glucose levels after glucose load vs control animals fed palatable feed” value [2] of the same molecule?
A: significantly lower at 30 or/and 60 min after glucose load
